Literature values, collected in patent US5618841A, “Composition of iodophor teat dip for the prevention of mastitis and a process for using the same” (priority 1994, dated 1997).

Columns and labels:
microorganism = conditions: rank order
[1] = first ionization constant
[2] = 25° C.

SMILES | relative antimicrobial strength, with respect to citric acid (microorganism) | pKa [1] | solubility in water [2]
O=C(O)CO [Glycolic acid] | Mandelic acid>Lactic acid>Glycolic acid>Malic acid>Citric acid | – | –
CC(O)C(=O)O (stereo not drawn) [Lactic acid] | Mandelic acid>Lactic acid>Glycolic acid>Malic acid>Citric acid | – | –
O=C(O)CC(O)C(=O)O (stereo not drawn) [Malic acid] | Mandelic acid>Lactic acid>Glycolic acid>Malic acid>Citric acid | – | –
O=C(O)C(O)c1ccccc1 (stereo not drawn) [Mandelic acid] | Mandelic acid>Lactic acid>Glycolic acid>Malic acid>Citric acid | 3.39 | –
II [elemental iodine] | – | – | 0.03%
